Test results: the OPERA property sets (Mansouri et al. 2018)
Peptide text beside a SMILES is read from it.

SMILES	logP
CCCCOc1cccc(O)c1	3.03
Cc1ccccc1N(C)C	2.85
CC(=O)NN	-1.58
c1ccc(CNc2ccccc2)cc1	3.13
N#CC(C#N)=NNc1ccc(C(=O)CCl)cc1	2.15
CN(C)C(N(C)C)=S(I)c1ccccc1Cl (stereo not drawn)	-0.19
CCC(Br)(CC)C(=O)NC(N)=O	1.54
O=C(C=Cc1ccccc1)OCC=Cc1ccccc1	4.45
COc1ccc2cc(C(C)C(=O)OCC(=O)N(CCO)CCO)ccc2c1 (stereo not drawn)	1.7
CCCCCCCCCC(=O)N1CCCC1=O	4.33
CC(C)(C)C1Nc2cc(Cl)c(S(N)(=O)=O)cc2S(=O)(=O)N1 (stereo not drawn)	0.36
Nc1ccc(S(=O)(=O)c2ccc(N)cc2)cc1	0.97
Cc1ncc([N+](=O)[O-])n1CCS(C)(=O)=O	-0.82
C=C=C	1.45
CC1CC2C3CCC4=CC(=O)C=CC4(C)C3(F)C(=O)CC2(C)C1(O)C(=O)CCl (stereo not drawn)	2.61
Fc1cccc2cccnc12	2.19
C=CCC1=C(C)C(OC(=O)C2C(C=C(C)C)C2(C)C)CC1=O (stereo not drawn)	4.78
CC(=O)OCC(=O)[C@@]1(O)[C@H](OC(C)=O)C[C@H]2[C@@H]3CCC4=CC(=O)C=C[C@]4(C)[C@@]3(F)[C@@H](O)C[C@@]21C	1.92
COc1cc(C(O)CO)ccc1O (stereo not drawn)	-0.58
Cc1nnc2n1-c1sc(Br)cc1C(c1ccccc1Cl)=NC2	2.79
N#Cc1c2ccccc2cc2ccccc12	4.26
NC(=O)C1(N2CCCCC2)CCN(CCCC(=O)c2ccc(F)cc2)CC1	2.02
COCCOc1ccccc1	1.73
O=C(O)Cc1cccc([N+](=O)[O-])c1	1.45

SMILES	logP
CC1CN1C1=C(F)C(=O)C(N2CC2C)=C(F)C1=O (stereo not drawn)	1.61
CN(C)CCNC(=O)c1ccccc1	1.1
Cc1ncc([N+](=O)[O-])n1CCNC(=O)OC(C)C	0.88
COc1ccc(N2C(=O)CCC2=O)cc1	0.15
c1ccc2nc3ccccc3nc2c1	2.84
COC(=O)C(Cl)(Cl)Cl	2.03
Clc1cccnc1Cl	2.11
COc1ccc(C(c2ccc(OC)cc2)C(Cl)(Cl)Cl)cc1	5.08
O=c1oc2ccccc2c(O)c1Cc1c(O)c2ccccc2oc1=O	2.07
CN(C)c1cccnc1	1.41
O=CN1CCCC1	-0.32
CNc1ccccc1[N+](=O)[O-]	2.18
Cc1ccc(C(N)=O)cc1	1.18
Clc1cc(Cl)c(-c2cccc(Cl)c2Cl)cc1Cl	6.67
Nc1cc(N2CCCCC2)nc(N)[n+]1[O-]	1.24
N#Cc1cccc(OCC(=O)O)c1	0.95
O=C(CN1CCCCC1)Nc1ccccc1	2.71
c1ccc2nc3ccccc3cc2c1	3.4
Nc1nncc2ccccc12	0.82
NC(=O)C(=Cc1ccccc1)C(N)=O	-0.13
CCc1nnc(NS(=O)(=O)c2ccc(N)cc2)s1	1.01
N#CSCc1ccccc1	1.99
Nc1nc(N)nc(-c2ccc(F)cc2)n1	1.61
CC(=O)OCC(=O)[C@H]1CC[C@H]2[C@@H]3CCC4=CC(=O)CC[C@]4(C)[C@H]3CC[C@]12C	3.08

SMILES	logP
O=c1ccoc2cc(O)ccc12	1.44
Clc1cc(Cl)c(Cl)cc1Cl	4.64
CN(C)C(N(C)C)=S(I)c1ccc(C#N)cc1 (stereo not drawn)	-1.13
COCc1ccccc1	1.92
CC(=O)OC(OC(C)=O)c1ccccc1	1.62
Oc1cc(O)c2ccccc2c1	1.97
O=[N+]([O-])c1cccc2cccnc12	1.4
c1ccc(Sc2ccccc2)cc1	4.45
CC(=O)Oc1ccccc1C	1.93
CNCCO	-0.94
NC(=O)CCCCOC(=O)c1ccccc1	1.39
Oc1ccccc1I	2.65
Cc1cc2ccccc2cc1C	4.4
CCCCOC(=O)c1ccc(O)cc1	3.57
CCCCCCCCN(C)/N=N/c1ccc(C(N)=O)cc1	4.7
CC(C)NC(=O)C=Cc1ccc([N+](=O)[O-])o1	1.34
O=C1NC(=O)[C@@]2(CCOc3ccc(F)cc32)N1	0.78
CCOP(=O)(OCC)OCC	0.8
Cc1cccc(CO)c1	1.6
COC(=O)Cn1cnc([N+](=O)[O-])n1	-0.38
CC(=O)N[C@@H](Cc1ccc(O)cc1)C(=O)N[C@@H](CC(C)C)C(N)=O (Ac-Tyr-Leu-NH2)	0.32
CCC1C2CC3C4N(C)c5ccccc5C45CC(C2C5O)N3C1O (stereo not drawn)	1.81
CC1(O)CCC2C3CCC4=CC(=O)CCC4(C)C3(F)C(O)CC21C (stereo not drawn)	2.38
COc1ccc(CO)cc1	1.1

SMILES	logP
CN(C)C(N(C)C)=S(I)c1ccccc1 (stereo not drawn)	-0.68
NC1C2CCC1c1ccccc12 (stereo not drawn)	2.13
CC(C)=CC1C(C(=O)OCN2C(=O)C3=C(CCCC3)C2=O)C1(C)C (stereo not drawn)	4.73
O=[N+]([O-])c1ccccc1Br	2.52
CN(C)C(=O)Nc1ccc(F)cc1	1.13
CCCCOc1cccc(C=C(C(=O)OCC)C(=O)OCC)c1	4.03
CCOc1ccc(OC(=O)NC)cc1	1.63
FCC1CO1 (stereo not drawn)	-0.16
Fc1ccccc1CCl	2.67
CCOC(=O)C(=Cc1ccccc1C)C(=O)OCC	3.22
CCOC(=O)CON=Cc1ccc(OCC(=O)OCC)c(OC)c1	1.87
CC12C=CC(=O)C=C1CCC1C2C(O)CC2(C)C1CCC2(O)C(=O)COC1OC(CO)C(O)C(O)C1O (stereo not drawn)	0.27
Nc1ccc2ccccc2c1	2.28
O=CNc1ccc2[nH]ccc2c1	1.07
CCCCC(=O)OCC1CCC(n2cnc3c(=O)[nH]cnc32)O1 (stereo not drawn)	0.65
O=CO	-0.54
O=C(O)Cc1ccc(I)cc1	2.64
CNC(=O)Oc1cccc(N(C)C)c1	1.43
Nc1cn[nH]c1	-1.09
OC(c1ccccc1)C(O)c1ccccc1 (stereo not drawn)	1.91
CCCOC=O	0.83
Brc1ccccc1Br	3.64
CCCCCC1(c2ccncc2)CCC(=O)NC1=O (stereo not drawn)	2.26
c1ccc(N=Nc2ccccc2)cc1	3.82

SMILES	logP
NC(C(=O)OCn1ncc2c(=O)[nH]cnc21)c1ccccc1 (stereo not drawn)	-0.15
Cc1ccc(S(N)(=O)=O)cc1	0.82
NS(=O)(=O)Nc1ccccc1	0.4
Clc1ccc2ccccc2c1Cl	4.42
CCCCn1cc(C)c(=O)[nH]c1=O	0.91
CC1CCCCN1N=O (stereo not drawn)	0.71
Cc1ccc(COC(N)=O)cc1	1.76
CC(C)COC(=O)n1cnc(CC(NC(=O)C2CCC(=O)N2)C(=O)N2CCCC2C(N)=O)c1 (stereo not drawn)	-0.44
COC(=O)c1ccc(NC(C)=O)cc1	1.79
CCNC(=O)c1ccco1	0.61
CC(=O)C(C)C	0.84
C=CCC1(C2C=CCC2)C(=O)NC(=O)NC1=O (stereo not drawn)	1.51
O=C(O)COc1cccc(-c2ccccc2)c1	3.18
CC(C)c1ccccc1N	2.12
Fc1cccc(F)n1	1.17
CCCCOCc1ccccc1NC(=O)OCCN1CCCCC1	3.94
CC(=O)Nc1ccc([N+](=O)[O-])cc1	1.66
Oc1cccc(-c2ccccc2)c1	3.23
CCN1CCN(CC)C1=S	1.13
NNC=O	-2.05
CC12CC(O)C3C(CCC4(O)CC(O)CC(O)C34CO)C1(O)CCC2C1=CC(=O)OC1 (stereo not drawn)	-0.02
CNC(=O)Oc1cccc2ccccc12	2.36
O=C(O)c1cccc(F)c1	2.15
CCCCCOC(=O)NC	1.96

SMILES	logP
Cc1ccc(-c2nc(N)nc(N)n2)cc1	1.92
CCCCNc1ccc(C(=O)OCCOCCOCCOCCOCCOCCOCCOCCOCCOC)cc1	2.45
O=C1CCC(=O)N1c1cccc([N+](=O)[O-])c1	0.38
ClC(Cl)(Cl)C(c1ccccc1)c1ccccc1	4.87
CC(=O)Oc1ccc(C)cc1	2.11
S=C(NN=Cc1ccco1)Nc1ccccc1	3.13
CN(C)C(N(C)C)=S(I)c1cccc(I)c1 (stereo not drawn)	0.29
S=C=Nc1cccc2ccccc12	4.34
C#CC(C)(C)O	0.28
O=C(CN1CCCCC1)Nc1cccc([N+](=O)[O-])c1	2.59
O=C(O)CCCCCC(=O)O	0.61
O=NN1CCC(Br)C(Br)C1 (stereo not drawn)	1.23
O=S1(=O)N=CNc2ccccc21	0.16
CN(C)C(N(C)C)=S(I)c1ccc(C(=O)O)cc1 (stereo not drawn)	-1.28
S=C=Nc1ccc(-c2ccccc2)cc1	4.66
CN1CCCC1	0.92
CCOc1cccc(OC(=O)NC)c1	1.75
CC1(C)O[C@@H]2C[C@H]3[C@@H]4CCC5=CC(=O)C=C[C@]5(C)[C@@]4(F)[C@@H](O)C[C@]3(C)[C@]2(C(=O)CO)O1	2.53
CC(C)c1ccccc1OCC(=O)O	2.84
O=C(NN=Cc1ccoc1)Nc1ccccc1	2.52
CCCCCCN(C)N=Nc1ccc(C(N)=O)cc1	3.69
CNC(=O)Oc1ccc(C(=O)OC)cc1	1.5
CCCCCOc1ccc(O)cc1	3.5
CC(=O)NCC(=O)N[C@@H](Cc1ccccc1)C(N)=O (Ac-Gly-Phe-NH2)	-0.56

SMILES	logP
CCSc1ccccc1	3.2
O=[N+]([O-])c1cccc2c1ccc[n+]2[O-]	0.49
NC(CO)C(=O)O (stereo not drawn)	-3.07
CCOCCO	-0.32
Oc1ccc(Oc2ccccc2)cc1	3.35
CC(=O)S[C@@H]1CC2=CC(=O)CC[C@]2(C)[C@H]2CC[C@@]3(C)[C@@H](CC[C@@]34CCC(=O)O4)[C@H]12	2.78
Cc1cc(Cl)cc(Cl)c1NC1=NCCN1	2.38
CC(=O)c1ccc(OCC(=O)O)cc1	0.87
COc1cccc(OCC(=O)O)c1	1.38
c1cncc(CN2CCOCC2)c1	0.04
O=C(NC(CO)C(O)c1ccc(I)cc1)C(Cl)Cl (stereo not drawn)	2.22
CCOP(=O)(OCC)SCn1nnc2ccccc2c1=O	1.63
CN(C)CC(O)c1ccccc1 (stereo not drawn)	1.54
N#CN/C(N)=N/c1ccccc1	1.05
CC(=O)Nc1cccnc1	0.41
ICI	2.3
O=C(O)Cc1ccc(OCCc2ccccc2)c(Cl)c1	3.53
O=C(O)Cc1ccc(F)cc1	1.55
COc1ccc2c(c1)N(CCCN(C)C)c1ccccc1S2	4.9
